In one assay the target is human Nav1.7 (Homo sapiens, UniProt Q15858). Type of assay: cell-based. The conditions noted are these: Table 3, natural toxins.
The next assay concerns Nav1.2 (rBIIa). Nature of the assay: Sodium channel-blocking assay, Nav1.2 counter-screen. Type of assay: cell-based, rat. The following applies: Table 3, natural toxins. Background: Counterscreens check selectivity or assay interference.

Where a SMILES comes first, the peptide text is derived from it. Bridges are numbered along the chain shown (N, C = ends).

Sequence of human Nav1.7 (Q15858 other isoform, or with tags, fused parts or gaps): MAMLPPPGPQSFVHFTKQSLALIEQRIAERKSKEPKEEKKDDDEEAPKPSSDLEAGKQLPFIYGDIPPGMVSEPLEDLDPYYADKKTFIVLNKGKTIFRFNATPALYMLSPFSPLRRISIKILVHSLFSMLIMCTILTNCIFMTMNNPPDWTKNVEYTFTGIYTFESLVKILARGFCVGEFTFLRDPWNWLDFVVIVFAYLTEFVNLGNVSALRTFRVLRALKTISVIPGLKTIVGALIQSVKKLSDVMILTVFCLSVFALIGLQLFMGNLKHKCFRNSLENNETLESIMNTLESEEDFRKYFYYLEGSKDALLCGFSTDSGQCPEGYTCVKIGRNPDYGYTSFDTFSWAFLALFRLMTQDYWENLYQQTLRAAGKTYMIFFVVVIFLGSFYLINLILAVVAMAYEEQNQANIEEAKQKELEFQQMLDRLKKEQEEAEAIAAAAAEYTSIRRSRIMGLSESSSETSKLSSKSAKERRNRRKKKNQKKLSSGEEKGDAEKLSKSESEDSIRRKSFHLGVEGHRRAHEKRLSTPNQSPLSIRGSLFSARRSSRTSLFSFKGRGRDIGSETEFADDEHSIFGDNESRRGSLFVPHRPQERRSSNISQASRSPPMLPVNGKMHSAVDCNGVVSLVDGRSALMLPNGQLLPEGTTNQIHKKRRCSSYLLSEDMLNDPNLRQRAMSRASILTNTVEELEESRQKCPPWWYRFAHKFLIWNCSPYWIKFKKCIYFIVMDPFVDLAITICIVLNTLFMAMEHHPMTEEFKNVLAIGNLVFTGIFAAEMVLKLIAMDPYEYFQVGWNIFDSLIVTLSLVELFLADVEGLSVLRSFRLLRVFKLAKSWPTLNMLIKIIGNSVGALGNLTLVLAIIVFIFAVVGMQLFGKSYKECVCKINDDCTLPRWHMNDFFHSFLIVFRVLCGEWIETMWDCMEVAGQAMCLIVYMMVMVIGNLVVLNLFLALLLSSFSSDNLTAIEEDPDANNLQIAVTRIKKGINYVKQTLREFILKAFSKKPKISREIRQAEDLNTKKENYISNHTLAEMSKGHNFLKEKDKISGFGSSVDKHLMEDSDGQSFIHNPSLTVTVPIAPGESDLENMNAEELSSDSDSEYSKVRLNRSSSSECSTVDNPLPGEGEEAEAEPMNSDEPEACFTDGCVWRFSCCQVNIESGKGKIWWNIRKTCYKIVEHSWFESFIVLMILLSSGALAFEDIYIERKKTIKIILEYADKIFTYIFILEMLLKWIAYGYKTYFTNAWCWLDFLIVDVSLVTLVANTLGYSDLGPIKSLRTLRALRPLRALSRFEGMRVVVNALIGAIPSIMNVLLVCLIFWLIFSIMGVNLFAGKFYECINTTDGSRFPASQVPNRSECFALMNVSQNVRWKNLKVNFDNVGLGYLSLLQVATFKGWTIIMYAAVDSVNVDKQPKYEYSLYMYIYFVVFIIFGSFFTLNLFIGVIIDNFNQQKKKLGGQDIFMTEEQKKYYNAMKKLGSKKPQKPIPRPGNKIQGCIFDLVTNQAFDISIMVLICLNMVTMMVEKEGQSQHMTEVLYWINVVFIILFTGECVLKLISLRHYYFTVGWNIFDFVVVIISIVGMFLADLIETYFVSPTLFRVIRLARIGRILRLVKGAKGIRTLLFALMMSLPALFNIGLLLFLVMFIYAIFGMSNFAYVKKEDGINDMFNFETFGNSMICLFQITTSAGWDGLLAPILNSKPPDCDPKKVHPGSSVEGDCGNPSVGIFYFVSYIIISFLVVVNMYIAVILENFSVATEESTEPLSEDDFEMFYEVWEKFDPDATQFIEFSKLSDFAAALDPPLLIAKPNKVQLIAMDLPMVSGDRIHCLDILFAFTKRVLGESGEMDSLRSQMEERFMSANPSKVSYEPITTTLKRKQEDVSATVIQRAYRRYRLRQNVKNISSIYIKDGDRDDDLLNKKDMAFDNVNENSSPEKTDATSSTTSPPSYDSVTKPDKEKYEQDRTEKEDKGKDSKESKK

A word on the IC50: it is the midpoint of a concentration-inhibition curve. As to `CC[C@H](C)[C@H](NC(=O)[C@H](CCCCN)NC(=O)[C@H](CCCCN)NC(=O)[C@H](CCCCN)NC(=O)[C@@H]1CSSC[C@@H]2NC(=O)[C@H](CCCCN)NC(=O)[C@H](CCCNC(=N)N)NC(=O)[C@H](CCC(=O)O)NC(=O)[C@H](CCC(=O)O)NC(=O)[C@H](CC(=O)O)NC(=O)[C@@H]3CSSC[C@H](NC(=O)[C@H](C(C)C)NC(=O)[C@H](CC(C)C)NC(=O)CNC(=O)[C@H](CCC(=O)O)NC(=O)[C@H](CSSC[C@H](NC(=O)[C@@H](N)Cc4ccc(O)cc4)C(=O)N[C@@H](CCC(N)=O)C(=O)N[C@@H](CCCCN)C(=O)N[C@@H](Cc4c[nH]c5ccccc45)C(=O)N[C@@H](CCSC)C(=O)N[C@@H](Cc4c[nH]c5ccccc45)C(=O)N[C@@H]([C@@H](C)O)C(=O)N3)NC2=O)C(=O)N[C@@H](CCCNC(=N)N)C(=O)N[C@@H](CC(C)C)C(=O)N[C@@H](Cc2c[nH]c3ccccc23)C(=O)N1)C(=O)N[C@@H](CCC(=O)O)C(=O)N[C@@H](Cc1c[nH]c2ccccc12)C(=O)O` [GsAF II] (H-YCQKWMWTCDEERKCCEGLVCRLWCKKKIEW-OH; disulfide 2-16, 9-21, 15-25), the IC50 came out at 70 ± 10 nM on human Nav1.7 and 410 ± 20 nM in the assay with Nav1.2 (rBIIa).

The record behind these values is patent publication US20180105561A1, “ANALOGS OF SODIUM CHANNEL PEPTIDE TOXIN” (priority 2010, published 2018).
